According to paper PMC11530689, “Anti colorectal cancer activity and in silico studies of novel pyridine nortopsentin analog as cyclin dependent kinase 6 inhibitor” (Scientific Reports, 2024):

Key:
Test in all cases: NCI 60 cell line screen
Assay type in all cases: cell-based
[1] = tested on: LOX IMVI; settings: Melanoma, single concentration 10^−5 M
Method in brief: (§1)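 The National Cancer Institute (Bethesda) ran the cytotoxicity testing, exposing each of 60 cancer cell lines to one concentration, 10^-5 M.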

[2] = tested on: K-562; settings: K-562, Leukemia; single concentration 10^−5 M
Method in brief: as §1

[3] = tested on: NCI-H226; settings: NCI-H226, Non-Small Cell Lung Cancer; single concentration 10^−5 M
Method in brief: as §1

[4] = tested on: SN12C; settings: Renal Cancer, single concentration 10^−5 M
Method in brief: as §1

[5] = tested on: SNB-75; settings: SNB-75, CNS Cancer; single concentration 10^−5 M
Method in brief: as §1

[6] = tested on: OVCAR-3; settings: OVCAR-3, Ovarian Cancer; single concentration 10^−5 M
Method in brief: as §1

[7] = tested on: NCI-H23; settings: NCI-H23, Non-Small Cell Lung Cancer; single concentration 10^−5 M
Method in brief: as §1

[8] = tested on: MOLT-4; settings: MOLT-4, Leukemia; single concentration 10^−5 M
Method in brief: as §1

[9] = tested on: DU-145; settings: DU-145, Prostate Cancer; single concentration 10^−5 M
Method in brief: as §1

[10] = tested on: SK-MEL-28; settings: SK-MEL-28, Melanoma; single concentration 10^−5 M
Method in brief: as §1

[11] = tested on: EKVX; settings: Non-Small Cell Lung Cancer, single concentration 10^−5 M
Method in brief: as §1

[12] = tested on: BT-549; settings: BT-549, Breast Cancer; single concentration 10^−5 M
Method in brief: as §1

[13] = tested on: SF-268; settings: SF-268, CNS Cancer; single concentration 10^−5 M
Method in brief: as §1

[14] = tested on: T-47D; settings: Breast Cancer, single concentration 10^−5 M
Method in brief: as §1

[15] = tested on: MDA-MB-468; settings: MDA-MB-468, Breast Cancer; single concentration 10^−5 M
Method in brief: as §1

[16] = tested on: HL-60 (TB); settings: Leukemia, single concentration 10^−5 M
Method in brief: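 NCI-60 single-point assay, 10^-5 M compound, cytotoxic activity per cell line.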

[17] = tested on: HS 578T; settings: Breast Cancer, single concentration 10^−5 M
Method in brief: as §1

[18] = tested on: TK-10; settings: TK-10, Renal Cancer; single concentration 10^−5 M
Method in brief: as §1

[19] = tested on: HCT-15; settings: HCT-15, Colon Cancer; single concentration 10^−5 M
Method in brief: as §1

[20] = tested on: SK-MEL-2; settings: SK-MEL-2, Melanoma; single concentration 10^−5 M
Method in brief: as §1

[21] = tested on: SK-OV-3; settings: SK-OV-3, Ovarian Cancer; single concentration 10^−5 M
Method in brief: as §1

[22] = tested on: M14; settings: M14, Melanoma; single concentration 10^−5 M
Method in brief: as §1

[23] = tested on: RPMI-8226; settings: RPMI-8226, Leukemia; single concentration 10^−5 M
Method in brief: as §1

N#Cc1c(-c2ccc(Br)cc2)cc(-c2c[nH]c3ccccc23)nc1-c1c[nH]c2ccccc12 [4b]
Growth % [1]: 99.48% | Growth % [2]: 96.82% | Growth % [3]: 87.72% | Growth % [4]: 96.36% | Growth % [5]: 91.48% | Growth % [6]: 102.43% | Growth % [7]: 93.93% | Growth % [8]: 99.47% | Growth % [9]: 107.37% | Growth % [10]: 112.22% | Growth % [11]: 85.89% | Growth % [12]: 103.55% | Growth % [13]: 100.28% | Growth % [14]: 85.37% | Growth % [15]: 104.30% | Growth % [16]: 102.74% | Growth % [17]: 97.14% | Growth % [18]: 146.78% | Growth % [19]: 97.86% | Growth % [20]: 95.21% | Growth % [21]: 100.81% | Growth % [22]: 102.89% | Growth % [23]: 102.03%

COc1cc(OC)cc(-c2cc(-c3c[nH]c4ccccc34)nc(-c3c[nH]c4ccccc34)c2C#N)c1 [4f]
Growth % [1]: 82.70% | Growth % [2]: 93.22% | Growth % [3]: 87.28% | Growth % [4]: 95.11% | Growth % [5]: 87.63% | Growth % [6]: 99.19% | Growth % [7]: 103.68% | Growth % [8]: 98.62% | Growth % [9]: 101.42% | Growth % [10]: 100.94% | Growth % [11]: 91.45% | Growth % [12]: 103.60% | Growth % [13]: 99.97% | Growth % [14]: 98.31% | Growth % [15]: 92.23% | Growth % [16]: 101.74% | Growth % [17]: 102.35% | Growth % [18]: 124.45% | Growth % [19]: 101.68% | Growth % [20]: 88.37% | Growth % [21]: 99.89% | Growth % [22]: 94.97% | Growth % [23]: 98.96%

N#Cc1c(-c2ccccc2)cc(-c2c[nH]c3ccccc23)nc1-c1c[nH]c2ccccc12 [4a]
Growth % [1]: 100.06% | Growth % [2]: 100.60% | Growth % [3]: 89.89% | Growth % [4]: 95.61% | Growth % [5]: 81.21% | Growth % [6]: 109.77% | Growth % [7]: 95.64% | Growth % [8]: 102.45% | Growth % [9]: 108.34% | Growth % [10]: 109.51% | Growth % [11]: 83.07% | Growth % [12]: 94.69% | Growth % [13]: 96.15% | Growth % [14]: 86.69% | Growth % [15]: 93.05% | Growth % [16]: 103.72% | Growth % [17]: 93.45% | Growth % [18]: 123.79% | Growth % [19]: 99.26% | Growth % [20]: 97.65% | Growth % [21]: 93.31% | Growth % [22]: 100.81% | Growth % [23]: 100.70%

N#Cc1c(-c2ccc([N+](=O)[O-])cc2)cc(-c2c[nH]c3ccccc23)nc1-c1c[nH]c2ccccc12 [4h]
Growth % [1]: 92.89% | Growth % [2]: 94.26% | Growth % [3]: 87.03% | Growth % [4]: 98.48% | Growth % [5]: 90.31% | Growth % [6]: 97.76% | Growth % [7]: 97.26% | Growth % [8]: 100.27% | Growth % [9]: 103.04% | Growth % [10]: 106.75% | Growth % [11]: 82.20% | Growth % [12]: 108.68% | Growth % [13]: 93.92% | Growth % [14]: 88.78% | Growth % [15]: 92.34% | Growth % [16]: 97.00% | Growth % [17]: 94.79% | Growth % [18]: 142.08% | Growth % [19]: 99.04% | Growth % [20]: 96.75% | Growth % [21]: 90.72% | Growth % [22]: 97.98% | Growth % [23]: 95.92%

COc1cc(-c2cc(-c3c[nH]c4ccccc34)nc(-c3c[nH]c4ccccc34)c2C#N)cc(OC)c1OC [4g]
Growth % [1]: 98.85% | Growth % [2]: 90.08% | Growth % [3]: 87.22% | Growth % [4]: 91.09% | Growth % [5]: 77.85% | Growth % [6]: 102.73% | Growth % [7]: 93.03% | Growth % [8]: 100.72% | Growth % [9]: 106.13% | Growth % [10]: 107.46% | Growth % [11]: 87.27% | Growth % [12]: 101.50% | Growth % [13]: 97.03% | Growth % [14]: 96.11% | Growth % [15]: 93.79% | Growth % [16]: 101.32% | Growth % [17]: 99.50% | Growth % [18]: 128.09% | Growth % [19]: 100.84% | Growth % [20]: 92.02% | Growth % [21]: 97.19% | Growth % [22]: 98.40% | Growth % [23]: 97.18%

N#Cc1c(-c2ccc(Cl)cc2)cc(-c2c[nH]c3ccccc23)nc1-c1c[nH]c2ccccc12 [4c]
Growth % [1]: 101.39% | Growth % [2]: 97.57% | Growth % [3]: 96.15% | Growth % [4]: 97.84% | Growth % [5]: 100.87% | Growth % [6]: 107.09% | Growth % [7]: 89.48% | Growth % [8]: 99.33% | Growth % [9]: 108.08% | Growth % [10]: 103.30% | Growth % [11]: 87.50% | Growth % [12]: 113.43% | Growth % [13]: 103.64% | Growth % [14]: 100.54% | Growth % [15]: 102.95% | Growth % [16]: 102.90% | Growth % [17]: 100.65% | Growth % [18]: 138.81% | Growth % [19]: 98.27% | Growth % [20]: 103.64% | Growth % [21]: 91.24% | Growth % [22]: 102.44% | Growth % [23]: 102.27%

N#Cc1c(-c2ccc(F)cc2)cc(-c2c[nH]c3ccccc23)nc1-c1c[nH]c2ccccc12 [4d]
Growth % [1]: 107.36% | Growth % [2]: 104.54% | Growth % [3]: 94.04% | Growth % [4]: 98.76% | Growth % [5]: 98.55% | Growth % [6]: 102.48% | Growth % [7]: 100.43% | Growth % [8]: 103.02% | Growth % [9]: 106.26% | Growth % [10]: 106.51% | Growth % [11]: 92.76% | Growth % [12]: 108.84% | Growth % [13]: 101.12% | Growth % [14]: 89.92% | Growth % [15]: 99.29% | Growth % [16]: 98.89% | Growth % [17]: 95.18% | Growth % [18]: 127.59% | Growth % [19]: 99.59% | Growth % [20]: 96.13% | Growth % [21]: 96.90% | Growth % [22]: 97.40% | Growth % [23]: 100.93%

COc1ccc(-c2cc(-c3c[nH]c4ccccc34)nc(-c3c[nH]c4ccccc34)c2C#N)cc1 [4e]
Growth % [1]: 86.06% | Growth % [2]: 96.99% | Growth % [3]: 92.14% | Growth % [4]: 99.19% | Growth % [5]: 97.63% | Growth % [6]: 96.29% | Growth % [7]: 103.56% | Growth % [8]: 94.10% | Growth % [9]: 108.02% | Growth % [10]: 108.94% | Growth % [11]: 91.11% | Growth % [12]: 97.48% | Growth % [13]: 105.10% | Growth % [14]: 86.61% | Growth % [15]: 102.09% | Growth % [16]: 106.85% | Growth % [17]: 100.69% | Growth % [18]: 141.73% | Growth % [19]: 89.77% | Growth % [20]: 100.09% | Growth % [21]: 94.59% | Growth % [22]: 93.75% | Growth % [23]: 104.41%
